The test system of experiment [1] is other nAChR subtypes. In kind it is cell-based, rat.
The target of experiment [2] is α6/α3β2β3 nAChR (Rattus norvegicus, UniProt P04757+P12390+P12391+P43143). The experiment in a line: cell-based.
Experiment [3] addresses α3β4 nAChR (Rattus norvegicus, UniProt P04757+P12392). The experiment in a line: cell-based.
Experiment [4] addresses α2β2 nAChR (Rattus norvegicus, UniProt P12389+P12390). Kind of experiment: cell-based.
Experiment [5] has as its target α7 nAChR (Rattus norvegicus, UniProt Q05941). Kind of experiment: cell-based.
Experiment [6] concerns the target α4β2 nAChR (Rattus norvegicus, UniProt P09483+P12390). The experiment in a line: cell-based.
For experiment [7], the target named is α9α10 nAChR (Rattus norvegicus, UniProt P43144+Q9JLB5). The experiment in a line: cell-based.
Experiment [8] concerns the target α3β2 nAChR (Rattus norvegicus, UniProt P04757+P12390). Kind of experiment: cell-based. The format is cell-based.

Read-outs that look alike come from different tables or passages of the source. Where a SMILES comes first, the peptide text is derived from it. Bridges are numbered along the chain shown (N, C = ends).

Chain of α6/α3β2β3 nAChR (P04757 whole entry, looked up): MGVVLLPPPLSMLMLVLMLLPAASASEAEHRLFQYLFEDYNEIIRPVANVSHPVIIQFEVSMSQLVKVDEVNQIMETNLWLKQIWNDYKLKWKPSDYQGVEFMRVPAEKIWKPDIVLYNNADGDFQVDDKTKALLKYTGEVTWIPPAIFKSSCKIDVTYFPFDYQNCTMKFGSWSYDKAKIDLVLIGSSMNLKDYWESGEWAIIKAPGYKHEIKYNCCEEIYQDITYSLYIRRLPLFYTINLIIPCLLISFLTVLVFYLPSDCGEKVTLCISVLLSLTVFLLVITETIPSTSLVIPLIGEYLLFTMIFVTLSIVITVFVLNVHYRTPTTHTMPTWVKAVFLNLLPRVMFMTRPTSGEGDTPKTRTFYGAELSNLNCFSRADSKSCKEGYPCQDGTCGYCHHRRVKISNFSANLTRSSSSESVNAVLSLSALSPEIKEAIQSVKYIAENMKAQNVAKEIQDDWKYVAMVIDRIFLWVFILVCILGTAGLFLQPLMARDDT
Chain of α6/α3β2β3 nAChR (P12390 whole entry, looked up): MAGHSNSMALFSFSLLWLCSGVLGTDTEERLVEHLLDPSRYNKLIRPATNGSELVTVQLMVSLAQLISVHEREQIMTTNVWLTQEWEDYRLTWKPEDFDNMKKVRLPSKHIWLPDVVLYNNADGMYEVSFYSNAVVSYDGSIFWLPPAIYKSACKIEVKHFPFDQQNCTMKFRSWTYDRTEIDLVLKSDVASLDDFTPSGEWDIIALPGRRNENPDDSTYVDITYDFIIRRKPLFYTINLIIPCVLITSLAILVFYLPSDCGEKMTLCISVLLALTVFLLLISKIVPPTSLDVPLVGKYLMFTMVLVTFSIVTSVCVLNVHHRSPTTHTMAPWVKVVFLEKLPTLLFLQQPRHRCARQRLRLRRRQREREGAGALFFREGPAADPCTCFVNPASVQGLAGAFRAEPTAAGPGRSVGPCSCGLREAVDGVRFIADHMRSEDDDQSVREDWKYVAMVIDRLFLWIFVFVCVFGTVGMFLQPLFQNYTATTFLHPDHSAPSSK
Chain of α6/α3β2β3 nAChR (P12391 whole entry, looked up): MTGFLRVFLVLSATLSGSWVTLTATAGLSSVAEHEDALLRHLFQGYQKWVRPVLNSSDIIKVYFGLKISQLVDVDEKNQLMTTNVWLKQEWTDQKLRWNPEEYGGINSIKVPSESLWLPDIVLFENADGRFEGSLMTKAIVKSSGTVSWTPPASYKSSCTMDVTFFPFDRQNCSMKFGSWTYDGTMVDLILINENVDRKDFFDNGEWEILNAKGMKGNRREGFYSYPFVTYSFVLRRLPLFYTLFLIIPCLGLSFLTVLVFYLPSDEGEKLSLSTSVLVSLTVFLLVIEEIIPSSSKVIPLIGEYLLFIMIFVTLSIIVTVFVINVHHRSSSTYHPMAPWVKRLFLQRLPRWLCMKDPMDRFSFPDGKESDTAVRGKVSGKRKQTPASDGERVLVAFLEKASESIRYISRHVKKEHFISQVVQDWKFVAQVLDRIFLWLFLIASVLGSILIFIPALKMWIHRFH
Chain of α6/α3β2β3 nAChR (P43143 whole entry, looked up): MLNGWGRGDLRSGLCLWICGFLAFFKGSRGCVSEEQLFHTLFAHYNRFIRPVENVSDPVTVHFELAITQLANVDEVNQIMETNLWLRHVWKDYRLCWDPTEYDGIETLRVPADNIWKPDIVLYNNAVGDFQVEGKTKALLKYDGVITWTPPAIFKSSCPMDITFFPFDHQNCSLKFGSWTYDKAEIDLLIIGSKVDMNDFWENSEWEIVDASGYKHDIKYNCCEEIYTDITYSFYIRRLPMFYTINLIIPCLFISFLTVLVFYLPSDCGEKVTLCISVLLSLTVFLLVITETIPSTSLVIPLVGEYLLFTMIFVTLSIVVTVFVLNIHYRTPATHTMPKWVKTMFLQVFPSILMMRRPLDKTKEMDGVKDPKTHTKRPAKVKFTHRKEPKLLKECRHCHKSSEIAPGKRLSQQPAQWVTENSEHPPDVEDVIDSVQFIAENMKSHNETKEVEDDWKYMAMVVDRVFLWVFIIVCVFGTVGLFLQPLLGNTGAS
Chain of α9α10 nAChR (P43144 26-479 limits assumed): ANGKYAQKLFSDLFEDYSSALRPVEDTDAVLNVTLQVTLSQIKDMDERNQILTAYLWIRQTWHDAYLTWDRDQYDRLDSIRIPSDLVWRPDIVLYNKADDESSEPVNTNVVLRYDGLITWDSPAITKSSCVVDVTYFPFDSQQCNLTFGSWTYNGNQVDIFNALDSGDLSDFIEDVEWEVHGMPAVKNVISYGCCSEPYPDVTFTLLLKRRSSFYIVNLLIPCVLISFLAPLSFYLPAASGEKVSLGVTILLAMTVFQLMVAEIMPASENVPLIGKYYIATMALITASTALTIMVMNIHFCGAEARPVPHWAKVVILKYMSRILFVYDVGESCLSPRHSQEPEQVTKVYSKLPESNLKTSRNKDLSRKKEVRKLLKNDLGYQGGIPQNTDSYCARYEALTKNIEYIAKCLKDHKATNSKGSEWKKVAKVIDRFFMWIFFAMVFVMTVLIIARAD
Chain of α9α10 nAChR (Q9JLB5 25-447 limits assumed): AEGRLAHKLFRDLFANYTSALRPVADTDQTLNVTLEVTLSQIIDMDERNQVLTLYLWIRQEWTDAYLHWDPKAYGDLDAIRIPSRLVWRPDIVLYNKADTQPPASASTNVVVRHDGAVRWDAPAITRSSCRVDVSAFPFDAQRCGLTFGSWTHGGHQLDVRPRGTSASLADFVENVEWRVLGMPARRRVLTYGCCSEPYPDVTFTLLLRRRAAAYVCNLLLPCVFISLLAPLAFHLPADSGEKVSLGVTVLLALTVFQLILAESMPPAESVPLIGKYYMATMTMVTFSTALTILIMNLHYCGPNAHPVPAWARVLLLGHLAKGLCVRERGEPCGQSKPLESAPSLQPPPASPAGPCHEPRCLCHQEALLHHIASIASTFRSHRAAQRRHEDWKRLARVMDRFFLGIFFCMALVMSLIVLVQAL
Chain of α3β2 nAChR (P04757 26-499 limits assumed): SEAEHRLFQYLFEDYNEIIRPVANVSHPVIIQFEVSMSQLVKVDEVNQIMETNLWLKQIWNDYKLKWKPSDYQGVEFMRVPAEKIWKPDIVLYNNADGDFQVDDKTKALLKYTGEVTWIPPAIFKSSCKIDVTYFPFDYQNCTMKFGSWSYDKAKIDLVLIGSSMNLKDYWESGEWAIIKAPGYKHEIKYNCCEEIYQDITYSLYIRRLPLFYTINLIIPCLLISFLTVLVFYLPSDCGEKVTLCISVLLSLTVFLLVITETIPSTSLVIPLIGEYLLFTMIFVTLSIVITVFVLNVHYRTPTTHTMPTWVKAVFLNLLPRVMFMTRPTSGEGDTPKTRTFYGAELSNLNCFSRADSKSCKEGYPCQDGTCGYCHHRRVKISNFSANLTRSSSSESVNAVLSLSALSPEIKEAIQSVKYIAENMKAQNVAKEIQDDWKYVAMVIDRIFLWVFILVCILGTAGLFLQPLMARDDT
Chain of α3β2 nAChR (P12390 25-500 limits assumed): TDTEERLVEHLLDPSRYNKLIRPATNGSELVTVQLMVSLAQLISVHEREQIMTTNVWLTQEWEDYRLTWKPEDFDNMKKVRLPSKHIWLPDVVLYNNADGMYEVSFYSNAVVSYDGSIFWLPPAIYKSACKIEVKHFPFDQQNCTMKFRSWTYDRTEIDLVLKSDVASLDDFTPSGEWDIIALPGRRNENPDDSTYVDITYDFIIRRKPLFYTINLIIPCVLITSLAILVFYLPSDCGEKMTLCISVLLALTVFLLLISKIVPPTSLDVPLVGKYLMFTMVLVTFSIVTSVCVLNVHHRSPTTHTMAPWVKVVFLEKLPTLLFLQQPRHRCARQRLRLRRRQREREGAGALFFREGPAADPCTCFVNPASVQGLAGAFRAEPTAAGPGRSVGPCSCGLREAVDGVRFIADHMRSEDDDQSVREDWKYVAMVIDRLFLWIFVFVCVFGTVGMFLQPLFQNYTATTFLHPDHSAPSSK
Chain of α7 nAChR (Q05941 23-502 limits assumed): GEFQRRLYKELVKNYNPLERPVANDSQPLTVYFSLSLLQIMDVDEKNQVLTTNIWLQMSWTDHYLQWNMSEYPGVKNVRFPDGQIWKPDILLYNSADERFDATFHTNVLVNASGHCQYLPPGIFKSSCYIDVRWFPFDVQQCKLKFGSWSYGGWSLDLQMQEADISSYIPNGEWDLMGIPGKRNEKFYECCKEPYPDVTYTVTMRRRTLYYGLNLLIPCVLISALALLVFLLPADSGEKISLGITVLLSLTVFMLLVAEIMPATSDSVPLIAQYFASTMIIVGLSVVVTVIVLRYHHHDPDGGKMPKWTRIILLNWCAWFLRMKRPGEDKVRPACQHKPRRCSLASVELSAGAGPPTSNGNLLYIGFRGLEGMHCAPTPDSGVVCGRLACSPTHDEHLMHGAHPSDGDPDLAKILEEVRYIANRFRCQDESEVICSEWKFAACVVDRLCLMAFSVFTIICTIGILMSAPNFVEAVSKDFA
Chain of α2β2 nAChR (P12389 28-511 limits assumed): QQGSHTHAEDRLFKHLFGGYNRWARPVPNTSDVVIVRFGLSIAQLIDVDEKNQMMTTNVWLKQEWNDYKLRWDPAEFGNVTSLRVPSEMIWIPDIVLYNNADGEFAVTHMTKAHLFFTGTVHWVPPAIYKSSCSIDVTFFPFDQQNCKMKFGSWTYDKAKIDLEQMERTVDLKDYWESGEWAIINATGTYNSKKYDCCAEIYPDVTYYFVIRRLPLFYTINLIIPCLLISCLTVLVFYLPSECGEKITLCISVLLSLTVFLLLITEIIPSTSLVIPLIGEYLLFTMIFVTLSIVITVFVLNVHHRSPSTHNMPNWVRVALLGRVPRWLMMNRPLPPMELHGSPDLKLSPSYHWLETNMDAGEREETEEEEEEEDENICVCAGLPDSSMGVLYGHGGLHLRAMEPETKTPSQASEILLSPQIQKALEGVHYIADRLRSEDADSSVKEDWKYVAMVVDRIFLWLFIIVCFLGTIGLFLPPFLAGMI
Chain of α2β2 nAChR (P12390 25-500 limits assumed): as the sequence (P12390 25-500 limits assumed) above

Regarding `C[C@@H]1NC(=O)[C@@H]2CCCN2C(=O)[C@H](Cc2c[nH]cn2)NC(=O)[C@@H]2CSSC[C@@H](C(N)=O)NC(=O)[C@H](CC(N)=O)NC(=O)[C@H](Cc3ccc(O)cc3)NC(=O)[C@H](CCCCN)NC(=O)[C@H](CCCNC(=N)N)NC(=O)CNC(=O)[C@H](CSSC[C@H](NC(=O)[C@H](CCCNC(=N)N)NC(=O)CN)C(=O)N2)NC1=O` [GaIA] (H-GRCCHPACGRKYNC-NH2; disulfide 3-8, 4-14), the IC50 in experiment [1] (read-out: IC50) is greater than 1000 nM; in experiment [7], 777 nM. The “Hill Slope” value in experiment [2] is listed as −0.87; in experiment [3], −1.37; in experiment [4], −1.09; in experiment [5] it was −1.45; in experiment [6], −1.28; in experiment [7], −0.93. Moreover, in experiment [8], the “Hill Slope” value was −1.25. Moreover, in experiment [8], the “fold less potency than at muscle-type α1β1γδ” value is “about 25 fold”.

One may read the inhibition as the change of the read-out against control, counted positive when it falls. High values mean strong suppression, low ones little suppression. Regarding `CC(C)C[C@@H]1NC(=O)[C@H](C(C)C)NC(=O)[C@H](C)NC(=O)[C@@H]2CSSC[C@H](NC(=O)CN)C(=O)N[C@@H](CSSC[C@@H](C(N)=O)NC(=O)[C@H](Cc3c[nH]cn3)NC1=O)C(=O)N[C@@H](CO)C(=O)N[C@@H]([C@@H](C)O)C(=O)N1CCC[C@H]1C(=O)N1CCC[C@H]1C(=O)N2` [AdIA] (H-GCCSTPPCAVLHC-NH2; disulfide 2-8, 3-13), the inhibition in experiment [1] is recorded as no more than 50%. Further, the IC50 is greater than 10000 nM in experiment [1] (read-out: potency); 177 nM in experiment [2]; greater than 10 nM in experiment [3]; greater than 10 nM in experiment [4]; greater than 10 nM in experiment [5]; greater than 10 nM in experiment [6]. Besides, the IC50 was greater than 10 nM in experiment [7] and 1380 nM in experiment [8]. For the same molecule, the entries for the “Hill Slope” value in experiment [2] and in experiment [8] were −1.14 and −1.24, respectively. The “fold lower potency than at α6/α3β2β3” value in experiment [8] was “at least 8 fold”.

Values taken from PMC10301793 (Marine Drugs, 2023).
